These results are taken from patent US11040981B2, “Pyrrolotriazine compounds and methods of inhibiting TAM kinases” (Syros Pharmaceuticals, Inc., priority 2017, dated 2021).

One assay concerns the target T1, MERTK (Homo sapiens, UniProt Q12866).
T1 sequence (Q12866 21-999): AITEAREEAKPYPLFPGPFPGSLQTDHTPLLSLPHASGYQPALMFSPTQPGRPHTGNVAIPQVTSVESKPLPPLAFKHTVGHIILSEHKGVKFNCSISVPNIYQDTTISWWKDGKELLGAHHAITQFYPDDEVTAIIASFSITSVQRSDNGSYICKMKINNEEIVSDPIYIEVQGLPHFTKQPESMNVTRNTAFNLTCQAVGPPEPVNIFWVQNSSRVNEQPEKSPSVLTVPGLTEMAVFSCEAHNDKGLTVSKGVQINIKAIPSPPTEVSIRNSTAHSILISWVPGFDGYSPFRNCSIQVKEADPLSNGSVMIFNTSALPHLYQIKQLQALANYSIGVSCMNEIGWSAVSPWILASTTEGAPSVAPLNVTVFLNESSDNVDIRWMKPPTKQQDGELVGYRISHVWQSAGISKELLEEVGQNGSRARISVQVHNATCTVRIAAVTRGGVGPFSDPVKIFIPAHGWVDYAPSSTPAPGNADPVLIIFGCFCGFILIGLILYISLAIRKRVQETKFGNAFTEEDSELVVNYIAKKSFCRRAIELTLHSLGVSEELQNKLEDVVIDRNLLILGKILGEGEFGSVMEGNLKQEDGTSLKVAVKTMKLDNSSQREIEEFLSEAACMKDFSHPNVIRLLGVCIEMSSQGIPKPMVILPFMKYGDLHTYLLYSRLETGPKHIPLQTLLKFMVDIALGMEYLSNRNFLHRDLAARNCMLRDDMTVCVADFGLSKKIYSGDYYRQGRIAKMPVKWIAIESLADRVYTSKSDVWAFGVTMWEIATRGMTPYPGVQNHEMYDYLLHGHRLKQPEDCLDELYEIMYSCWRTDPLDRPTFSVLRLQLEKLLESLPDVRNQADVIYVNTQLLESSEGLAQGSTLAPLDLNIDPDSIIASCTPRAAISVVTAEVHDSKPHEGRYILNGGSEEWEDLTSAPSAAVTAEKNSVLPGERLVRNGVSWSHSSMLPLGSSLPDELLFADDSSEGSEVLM
Description: TR-FRET kinase activity assay, MERTK. It is filed as biochemical. The note with it: for IC50: TR-FRET activity assay, ATP at Km, 60 minutes, read-out: Mer IC50; for FLT3/Mer ratio (FLT3 IC50/Mer IC50): ratio of Mer to FLT3: FLT3 IC50/Mer IC50. How it is done:
(§1) IC50 values for compound inhibition of AXL, FLT3, MERTK and TYRO3 activity were determined by using a TR-FRET activity assay. A polypeptide substrate with a fluorescent label is phosphorylated on a tyrosine by each enzyme, where the now phosphorylated product is bound by a Europium-labeled antibody specific to that phosphorylation site. The proximity between the antibody and the substrate gives a signal known as TR-FRET. As the enzyme is inhibited by compound, less phosphorylated peptide product is made causing a decrease in overall signal.
(§2) Activity assays were performed in a 384-well, small volume, black microplates in an active enzyme volume of 10 μL and final developed volume of 20 μL. Final assay conditions are 50 mM HEPES pH 7.5, 10 mM MgCl2, 1 mM EGTA, 0.01% Brij 35 and 1 mM DTT all at RT. Enzyme, substrate labeled peptide and compound are mixed, and then the reaction is initiated with the addition of ATP at Km concentration for each enzyme. The reaction is allowed to run 60 minutes and then quenched with a 12.5 mM EDTA (ethylenediamine tetraacetic acid) solution. The plate is then developed with the addition of Europium labeled antibody for a final volume of 20 μL and is then incubated for 30 minutes in darkness. Plates are read in a Pherastar plate reader. Data is analyzed in GraphPad PRISM.
(§3) The results of these assays are shown in Table 1, below, wherein “No.” designates compound number (FIG. 1); “A” represents a value of ≤100 nM; “B” a value of >100 nM and ≤1 μM; “C” a value of >1 μM and ≤10 μM; “D” a value of >10 μM; “ND” is not determined. The ratio of Mer to FLT3 is calculated as follows: FLT3 IC50/Mer IC50. “+” represents a ratio of >2.0 and <10; “++” represents a ratio of between 10 and 100; and “+++” represents a ratio of >100.
A general note: Time-resolved FRET reads energy transfer from a long-lived donor to a nearby acceptor.

A further assay concerns the target T2, TYRO3 (Homo sapiens, UniProt Q06418).
T2 sequence (Q06418 41-890): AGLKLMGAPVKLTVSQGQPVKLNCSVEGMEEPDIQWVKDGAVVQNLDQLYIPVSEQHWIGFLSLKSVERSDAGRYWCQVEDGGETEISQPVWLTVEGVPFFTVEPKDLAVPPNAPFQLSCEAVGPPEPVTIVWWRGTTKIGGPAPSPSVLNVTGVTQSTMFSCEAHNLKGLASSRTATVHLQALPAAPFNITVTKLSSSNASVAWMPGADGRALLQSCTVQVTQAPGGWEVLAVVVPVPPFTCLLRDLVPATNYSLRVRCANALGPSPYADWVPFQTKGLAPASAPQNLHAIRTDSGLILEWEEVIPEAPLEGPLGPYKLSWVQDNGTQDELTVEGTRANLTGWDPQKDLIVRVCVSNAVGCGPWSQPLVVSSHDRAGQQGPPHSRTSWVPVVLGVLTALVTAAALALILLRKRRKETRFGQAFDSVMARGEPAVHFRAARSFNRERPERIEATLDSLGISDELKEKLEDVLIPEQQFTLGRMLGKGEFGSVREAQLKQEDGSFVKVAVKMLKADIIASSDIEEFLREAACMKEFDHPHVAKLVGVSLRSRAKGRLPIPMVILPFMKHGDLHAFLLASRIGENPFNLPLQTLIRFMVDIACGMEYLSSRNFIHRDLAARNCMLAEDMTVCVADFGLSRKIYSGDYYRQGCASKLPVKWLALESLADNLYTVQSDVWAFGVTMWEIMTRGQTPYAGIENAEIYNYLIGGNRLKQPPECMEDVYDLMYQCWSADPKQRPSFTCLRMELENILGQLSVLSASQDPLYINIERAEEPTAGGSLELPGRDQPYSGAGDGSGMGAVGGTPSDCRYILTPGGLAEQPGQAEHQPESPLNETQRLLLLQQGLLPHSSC
Description: TR-FRET kinase activity assay, TYRO3. In kind it is biochemical. As to conditions: ATP at Km, 60 minutes. On the procedure: as §1, §2, §3

Some results are limits rather than exact numbers.

The IC50 is the concentration at which inhibition is half-maximal.

Take `CCCCC[C@H](C)Nc1ncc2c(-c3ccc(CN4CCN(C)CC4)cc3)cc([C@H]3CC[C@H](O)CC3)n2n1` [Compound 104]: on MERTK, the IC50 was not above 0.1 µM; the “FLT3/Mer ratio (FLT3 IC50/Mer IC50)” value was “++ (“++” represents a ratio of between 10 and 100)”. The half-maximal inhibitory concentration (IC50) against TYRO3 is not above 0.1 µM.

Consider `COC[C@H](C)Nc1ncc2c(-c3cnn(C(C)(C)CO)c3)cc([C@H]3CC[C@H](O)CC3)n2n1` [Compound 265], for which, on MERTK, the IC50 was not above 0.1 µM and the “FLT3/Mer ratio (FLT3 IC50/Mer IC50)” value is reported as “+++ (“+++” represents a ratio of >100)”. Also, the IC50 at TYRO3 was not above 0.1 µM.

`COC[C@H](C)Nc1ncc2c(-c3ccc(C(=O)NC(C)C)nc3)cc([C@H]3CC[C@H](O)CC3)n2n1` [Compound 228, 5-(7-((1r,4S)-4-hydroxycyclohexyl)-2-(((S)-1-methoxypropan-2-yl)amino)pyrrolo[2,1-f][1,2,4]triazin-5-yl)-N-isopropylpicolinamide]: the IC50 on MERTK and against TYRO3 was not above 0.1 µM each time. Also, at MERTK, the “FLT3/Mer ratio (FLT3 IC50/Mer IC50)” value is recorded as “+++ (“+++” represents a ratio of >100)”.

Turning to `COCC(C)Nc1ncc2c(-c3ccc4nccn4c3)cc(C3CCC(O)CC3)n2n1` (stereo not drawn) [Compound 193], on MERTK, the IC50 was not above 0.1 µM and the “FLT3/Mer ratio (FLT3 IC50/Mer IC50)” value is recorded as “+++ (“+++” represents a ratio of >100)”. In addition, on TYRO3, the IC50 was not above 0.1 µM.

For `COC[C@H](C)Nc1ncc2c(-c3cn(C)nn3)cc([C@H]3CC[C@H](O)CC3)n2n1` [Compound 250, (trans)-4-(2-(((S)-1-methoxypropan-2-yl)amino)-5-(1-methyl-1H-1,2,3-triazol-4-yl)pyrrolo[2,1-f][1,2,4]triazin-7-yl)cyclohexanol], on MERTK, the 50% inhibitory concentration (IC50) is not above 0.1 µM and the “FLT3/Mer ratio (FLT3 IC50/Mer IC50)” value is on record as “+++ (“+++” represents a ratio of >100)”. The compound further came in with an IC50 on TYRO3 not above 0.1 µM.

Regarding `COC[C@H](C)Nc1ncc2c(-c3cccc4c3CNC4=O)cc([C@H]3CC[C@H](O)CC3)n2n1` [Compound 210], the IC50 at MERTK and on TYRO3 was not above 0.1 µM each time. The “FLT3/Mer ratio (FLT3 IC50/Mer IC50)” value at MERTK is listed as “+++ (“+++” represents a ratio of >100)”.

For the compound `C[C@H](Nc1ncc2c(-c3ccc(CN4CCOCC4)cc3)cc([C@H]3CC[C@H](O)CC3)n2n1)[C@H]1CCCO1` [Compound 204], at MERTK, the 50% inhibitory concentration (IC50) is 0.1 to 1 µM; the “FLT3/Mer ratio (FLT3 IC50/Mer IC50)” value is “++ (“++” represents a ratio of between 10 and 100)”. The compound also returned an IC50 against TYRO3 of 0.1 to 1 µM.

For the compound `COC[C@H](C)Nc1ncc2c(-c3cnn(CCC#N)c3)cc([C@H]3CC[C@H](O)CC3)n2n1` [Compound 222], at MERTK, the IC50 is not above 0.1 µM and the “FLT3/Mer ratio (FLT3 IC50/Mer IC50)” value is listed as “+++ (“+++” represents a ratio of >100)”. The IC50 against TYRO3 was not above 0.1 µM.

As for `COC[C@H](C)Nc1ncc2c(-c3cnn(CC4(C#N)CC4)c3)cc([C@H]3CC[C@H](O)CC3)n2n1` [Compound 266], on MERTK, the IC50 is not above 0.1 µM and the “FLT3/Mer ratio (FLT3 IC50/Mer IC50)” value is reported as “+++ (“+++” represents a ratio of >100)”. The IC50 at TYRO3 was not above 0.1 µM.

In the case of `COC[C@H](C)Nc1ncc2c(-c3cncc(CN4CCOCC4)c3)cc([C@H]3CC[C@H](O)CC3)n2n1` [Compound 219], at MERTK, the 50% inhibitory concentration (IC50) is not above 0.1 µM and the “FLT3/Mer ratio (FLT3 IC50/Mer IC50)” value is “+++ (“+++” represents a ratio of >100)”. Also, on TYRO3, the IC50 was not above 0.1 µM.

Regarding `COC[C@H](C)Nc1ncc2c(-c3cccc(CN4CC[C@@H](F)C4)c3)cc([C@H]3CC[C@H](O)CC3)n2n1` [Compound 224], at MERTK, the IC50 was not above 0.1 µM and the “FLT3/Mer ratio (FLT3 IC50/Mer IC50)” value is recorded as “+++ (“+++” represents a ratio of >100)”. This compound came in with an IC50 against TYRO3 not above 0.1 µM.

In the case of `Cc1cc(-c2cc([C@H]3CC[C@H](O)CC3)n3nc(N[C@@H](C)CC(F)(F)F)ncc23)cnn1` [Compound 268], at MERTK, the IC50 was not above 0.1 µM and the “FLT3/Mer ratio (FLT3 IC50/Mer IC50)” value is “+++ (“+++” represents a ratio of >100)”. Moreover, the IC50 at TYRO3 was not above 0.1 µM.

Turning to `C[C@H](Nc1ncc2c(-c3ccc(CN4CCOCC4)cc3)cc([C@H]3CC[C@H](O)CC3)n2n1)[C@@H]1CCCO1` [Compound 205], at MERTK, the half-inhibitory concentration (IC50) is not above 0.1 µM and the “FLT3/Mer ratio (FLT3 IC50/Mer IC50)” value is “+++ (“+++” represents a ratio of >100)”. Besides, the IC50 against TYRO3 is not above 0.1 µM.

For `COCCn1cc(-c2cc([C@H]3CC[C@H](O)CC3)n3nc(N[C@@H](C)CC(F)(F)F)ncc23)cn1` [Compound 262], on MERTK, the half-maximal inhibitory concentration (IC50) was not above 0.1 µM and the “FLT3/Mer ratio (FLT3 IC50/Mer IC50)” value was “+++ (“+++” represents a ratio of >100)”. This compound yielded an IC50 on TYRO3 not above 0.1 µM.

In the case of `COC[C@H](C)Nc1ncc2c(-c3ccc4c(c3)CNC4=O)cc([C@H]3CC[C@H](O)CC3)n2n1` [Compound 252], at MERTK, the concentration for half-maximal inhibition (IC50) was not above 0.1 µM and the “FLT3/Mer ratio (FLT3 IC50/Mer IC50)” value was “+++ (“+++” represents a ratio of >100)”. In addition, the IC50 against TYRO3 was not above 0.1 µM.

As to `COC[C@H](C)Nc1ncc2c(-c3ccnc(N4CCOCC4)c3)cc([C@H]3CC[C@H](O)CC3)n2n1` [Compound 259], the IC50 at MERTK and against TYRO3 was not above 0.1 µM throughout. For the same compound, the “FLT3/Mer ratio (FLT3 IC50/Mer IC50)” value on MERTK was “+++ (“+++” represents a ratio of >100)”.

For `C[C@@H](CC(F)(F)F)Nc1ncc2c(-c3ccc(CN4CCOCC4)cc3)cc([C@H]3CC[C@H](O)CC3)n2n1` [Compound 203], on MERTK, the IC50 is not above 0.1 µM; the “FLT3/Mer ratio (FLT3 IC50/Mer IC50)” value was “++ (“++” represents a ratio of between 10 and 100)”. On TYRO3, the IC50 is not above 0.1 µM.

With `COC[C@H](C)Nc1ncc2c(-c3ccnc(N4CCN(C)CC4)c3)cc([C@H]3CC[C@H](O)CC3)n2n1` [Compound 256], the IC50 at MERTK and at TYRO3 was not above 0.1 µM each time. Besides, on MERTK, the “FLT3/Mer ratio (FLT3 IC50/Mer IC50)” value is listed as “+++ (“+++” represents a ratio of >100)”.

Take `COC[C@H](C)Nc1ncc2c(-c3cnc(C)o3)cc([C@H]3CC[C@H](O)CC3)n2n1` [Compound 261]: on MERTK, the IC50 is not above 0.1 µM and the “FLT3/Mer ratio (FLT3 IC50/Mer IC50)” value is on record as “+++ (“+++” represents a ratio of >100)”. The same compound registered an IC50 at TYRO3 not above 0.1 µM.
